The record followed here is paper PMC11148080, “Ru(II)-based complexes containing 2-thiouracil derivatives suppress liver cancer stem cells by targeting NF-κB and Akt/mTOR signaling” (Cell Death Discovery, 2024).

The subject of data set [1] is HepG2 cells. The data set is described as follows: Wound healing assay. The data set is classed as cell-based, human. Particulars: 72 h; 0.5 μM complex 1, 0.3 μM complex 2 (noncytotoxic). The method, then: Wound healing assays were performed as previously described. The cells were grown to 80–90% confluency in 12-well plates, and a wound was formed by dragging a plastic pipette tip over the cell surface. The remaining cells were washed three times with saline solution to eliminate cell debris before being cultured in serum-free media and treated with drugs. After 0 and 72 h of incubation, the migrating cells in front of the wound were photographed using an optical microscope (Nikon, TS 100). The wound area was calculated using ImageJ software from the National Institutes of Health (NIH, USA).

Data set [2] has as its system HepG2 cells. As to the kind of experiment: Light scattering (FSC/SSC) by flow cytometry. The format is cell-based, human. Particulars: 24, 48, 72 h. The text has this:
Light scattering characteristics measured by flow cytometry were used to analyze cellular parameters such as size and complexity/granularity in HepG2 cells treated with complexes 1 and 2 (Fig. S6A–S6F). Forward light scattering (FSC) was employed as a cell size metric in this experiment, while side scattering (SSC) was used to determine cell complexity/granularity. […] Both morphological changes are associated with cellular apoptosis, corroborating the findings observed in cells stained with May-Grunwald-Giemsa.
(§1) For all flow cytometry analyses, cellular fluorescence was measured using a BD LSRFortessa cytometer, BD FACSDiva software (BD Biosciences) and FlowJo software 10 (FlowJo LLC; Ashland, OR, USA). A minimum of 10,000 events were obtained per sample for intracellular staining, and a minimum of 30,000 events per sample were acquired for cell surface protein staining. Doublets were removed using FSC-A vs FCS-H and SCC-A vs SCC-H. Cellular debris was excluded from the analysis.
For orientation: A flow cytometer gives signals particle by particle.

The test system of data set [3] is HepG2 cells. As to the kind of experiment: Transwell migration assay. The data set is classed as cell-based, human. Particulars: same concentrations (0.5 μM complex 1, 0.3 μM complex 2), 24 h. As for the experimental part: Transwell plates were used for the cell migration assay, as previously described. The cells were initially incubated in serum-free media for 24 h. We used uncoated cell culture inserts in 6-well plates ([…]; Corning, USA). The upper chamber received 1.5 mL of serum-free medium, whereas the bottom chamber received 2 mL of medium containing 20% FBS. Cotton swabs were used to remove cells that remained in the top chamber after 24 h. The cells on the bottom surface of the membrane were fixed in 4% paraformaldehyde and stained with 0.5% crystal violet. The cells were imaged and counted using an optical microscope (Leica, DMI8).

Data set [4] concerns HepG2 cells. As to the kind of experiment: NF-κB and Akt/mTOR signaling protein levels by flow cytometry. The conditions noted are these: HepG2, 24 h; for level of Akt1 / level of phospho-4EBP1 (T36/T45) / level of phospho-Akt (S473) / level of phospho-Akt (T308) / level of phospho-PI3K p85/p55 (T458/T199) / level of phospho-elF4E (S209) / level of phospho-mTOR (S2448): 8 μM complex 1, 6 μM complex 2. The data set is classed as cell-based, human. The method, then: (§2) To stain intracellular proteins, the cells were harvested and resuspended in 0.5-1 mL of 4% formaldehyde for 10 min at 37 °C. The tube was then placed on ice for 1 min, after which the cells were prechilled and permeabilized using a sequence of 100% (30 min) to 90% (30 min) methanol with gentle mixing. After washing with incubation buffer (0.5% bovine serum albumin in PBS), primary antibodies were added and incubated for 1 h at room temperature. Finally, the cells were washed with PBS, and flow cytometry was used to measure cell fluorescence.
as §1

Data set [5] has as its system HepG2 cells. The data set is described as follows: CD133 and CD44 expression by flow cytometry. The format is cell-based, human. Particulars: 24 h; for percentage of HepG2 CD133-positive cells: 8 μM complex 1 or 6 μM complex 2. As for the experimental part: To stain the cell surface proteins, the cells were washed with an incubation buffer (0.5% bovine serum albumin in PBS), and then antibodies were added and incubated for 1 h at room temperature. The cells were then washed with PBS, and the fluorescence signal was measured by flow cytometry. CD133 and CD44 were quantified in YO-PRO-1 (Sigma‒Aldrich Co.) negative cells.
as §1

Data set [6] is described as follows: Toxicity parameters in xenografted mice. The format is in vivo, C.B-17 SCID mice. Particulars: 2 or 4 mg/kg i.p., 21 days; for changes in body weight or organs (liver, kidney, lung, heart): P > 0.05; for histopathological changes in the hearts: data not shown. From the text:
All animals were weighed at the start and end of the experiment to assess toxicological aspects. The animals were continuously examined for anomalies during the trial. The livers, kidneys, lungs, and hearts were removed and weighed before being preserved in 4% formaldehyde, dehydrated in a graded alcohol series, cleaned in xylene, and embedded in paraffin wax. The tissue was sliced into 5 μm thick slices, stained with hematoxylin and/or periodic acid-Schiff (liver and kidney), and histologically evaluated via optical microscopy.

The subject of data set [7] is HepG2 cells. The data set is described as follows: p62/SQSTM1 expression (autophagy). The format is cell-based, human. The conditions noted are these: HepG2, 24 h; 8 μM complex 1, 6 μM complex 2. As for the experimental part: as §2
The cells were grown on coverslips in 24-well plates and exposed to the drugs for 24 h. The cells were then washed twice with saline solution, permeabilized with 0.5% Triton X-100, treated with RNase (10 μg/mL), and incubated overnight with a primary fluorochrome-conjugated antibody (for antibody details, see Table S5). The next day, the cells were washed with saline solution and mounted using Fluoromount-G with DAPI (Invitrogen, Thermo Fisher Scientific). The cells were examined using a Leica TCS SP8 confocal microscope (Leica Microsystems, Wetzlar, HE, Germany).

The test system of data set [8] is HepG2 cells. The data set is described as follows: PARP (Asp214) cleavage by flow cytometry. The format is cell-based, human. The conditions noted are these: HepG2, 24 h; 8 μM complex 1, 6 μM complex 2. As for the experimental part:
as §2

Structures are written as SMILES.

Regarding `Cc1cc(=O)nc([S][Ru+])[nH]1.F[P-](F)(F)(F)(F)F.c1ccc(-c2ccccn2)nc1.c1ccc(P(c2ccccc2)c2ccccc2)cc1.c1ccc(P(c2ccccc2)c2ccccc2)cc1` [Complex 2, trans-[Ru(6m2TU)(PPh3)2(bipy)]PF6], the “HepG2 cell migration, wound healing” value with HepG2 cells [1] is recorded as “reduced”. The “cell size/granularity (FSC decrease, SSC increase)” value in the data set on HepG2 cells [2] is recorded as “caused cell shrinkage”. Further, in the data set on HepG2 cells [3], the “motility, transwell cell migration” value is recorded as “reduced motility”. In addition, in the data set with HepG2 cells [4], the “level of Akt1” value is on record as “reduced”, the “level of phospho-4EBP1 (T36/T45)” value is “not affected”, the “level of phospho-Akt (S473)” value is listed as “reduced” and the “level of phospho-Akt (T308)” value was “not affected”. Also, in the data set on HepG2 cells [4], the “level of phospho-PI3K p85/p55 (T458/T199)” value is “not affected”, the “level of phospho-elF4E (S209)” value is “not affected” and the “level of phospho-mTOR (S2448)” value is listed as “reduced”. Also, in the data set on HepG2 cells [5] (6 μM complex 2), the “percentage of HepG2 CD44high cells” value is “reduced”. Also, in the data set on HepG2 cells [5], the “percentage of HepG2 CD133-positive cells” value is listed as “reduced”. Further, in data set [6], the “histopathological alterations of kidneys, livers, lungs” value is “minor and/or reversible”; the “changes in body weight or organs (liver, kidney, lung, heart)” value is “No significant changes”; the “histopathological changes in the hearts” value is “No significant changes”. Besides, in the data set on HepG2 cells [7], the “induction of autophagy (p62/SQSTM1 expression)” value is “none of them caused autophagy”. Moreover, in the data set on HepG2 cells [8], the “PARP (Asp214) cleavage” value is “increased levels”.
On to `F[P-](F)(F)(F)(F)F.O=c1cc[nH]c([S][Ru+])n1.c1ccc(-c2ccccn2)nc1.c1ccc(P(c2ccccc2)c2ccccc2)cc1.c1ccc(P(c2ccccc2)c2ccccc2)cc1` [Complex 1, trans-[Ru(2TU)(PPh3)2(bipy)]PF6], for which the “HepG2 cell migration, wound healing” value in the data set on HepG2 cells [1] is “reduced”. Further, the “cell size/granularity (FSC decrease, SSC increase)” value in the data set with HepG2 cells [2] was “caused cell shrinkage”. In the data set with HepG2 cells [3], the “motility, transwell cell migration” value was “reduced motility”. In the data set with HepG2 cells [4] (8 μM complex 1), the “level of phospho-NF-κB p65 (S529)” value was “reduced” and the “level of phospho-S6 (S235/S236)” value was “reduced”. Besides, in the data set with HepG2 cells [4], the “level of Akt1” value is “reduced”, the “level of phospho-4EBP1 (T36/T45)” value is “not affected”, the “level of phospho-Akt (S473)” value is “reduced” and the “level of phospho-Akt (T308)” value is given as “not affected”. Further, in the data set with HepG2 cells [4], the “level of phospho-PI3K p85/p55 (T458/T199)” value is on record as “not affected”, the “level of phospho-elF4E (S209)” value is listed as “not affected” and the “level of phospho-mTOR (S2448)” value is “reduced”. In addition, in the data set with HepG2 cells [5], the “percentage of HepG2 CD133-positive cells” value is on record as “reduced”. Moreover, in data set [6], the “histopathological alterations of kidneys, livers, lungs” value was “minor and/or reversible”; the “changes in body weight or organs (liver, kidney, lung, heart)” value is reported as “No significant changes”; the “histopathological changes in the hearts” value was “No significant changes”. Further, the “induction of autophagy (p62/SQSTM1 expression)” value with HepG2 cells [7] is listed as “none of them caused autophagy”. Also, the “PARP (Asp214) cleavage” value in the data set with HepG2 cells [8] is listed as “increased levels”.
